Peptide text beside a SMILES is read from it.
How the values were obtained:
[1] = molecular target: MARK2 (Homo sapiens, UniProt Q7KZI7); assay: In vitro phosphorylation assay: inhibition of MARK2-mediated phosphorylation of hTau-K18 (western blot, α-Tau pSer262); format: biochemical
Method: The ability for MARK2 to phosphorylate hTau K18 was evaluated in vitro by incubating MARK2 with hTau-K18 in the presence or absence of ATP (FIG. 1B). All phosphorylation reactions were carried out for 60 minutes at 32° C. in phosphorylation buffer (50 mM Tris-HCl, 5 mM MgCl2, 2 mM EGTA, 0.5 mM DTT, 0.5 mM benzamidine HCl, 0.5 mM PMSF, pH 8.0). Following the reaction, phosphorylated hTau-K18 proteins were separated by SDS-PAGE and identified by western blot using antibodies specific for hTau pSer262 (FIG. 1B, lanes 1 and 2). As a loading control, total hTau-K18 in each lane was quantified by western blot using antibodies specific for non-phosphorylated hTau-K18 (FIG. 1B, lower image). To ensure that the phosphorylation of hTau-K18 was a result of kinase activity and not auto-phosphorylation by ATP, hTau-K18 was incubated in the absence of MARK2 with or without ATP (FIG. 1B, lanes 3 and 4).
The ability for the tR1 peptide to act as an inhibitor of MARK2-mediated phosphorylation of hTau-K18 in vitro was examined. To test this, MARK2 and hTau-K18 were incubated in the presence of varying concentrations of tR1 for 60 minutes at 32° C. in phosphorylation buffer. Following the reaction, the proteins were separated by SDS-PAGE and identified by Western blot using antibodies specific for hTau pSer262 (FIG. 1C). Total hTau-K18 in each lane was quantified using antibodies specific for non-phosphorylated hTau-K18 (FIG. 1C, lower image).
Phosphorylation assays were performed in 30 μL phosphorylation buffer (50 mM Tris-HCl, 5 mM MgCl2, 2 mM EGTA, 0.5 mM DTT, 0.5 mM benzamidine HCl, 0.5 mM PMSF, pH 8.0) and depending on the experimental conditions. 100 μM ATP, 10 μM hTau K18, 10 nM MARK2, and 10 μM tR1 were added to the reaction mixture. The reaction was carried out for 1 hour at 32° C. […] Images were acquired by a Bio-Rad Gel Doc EZ imager and the band intensity was quantified using Image Lab Software c5.2.1 (Bio-Rad).

[2] = molecular target: MARK2 (Rattus norvegicus, UniProt O08679); assay: Immunofluorescence of PAO-induced MARK2-mediated tau Ser262 phosphorylation in neurons; format: cell-based
[3] = In vitro peptide stability in neurobasal (NB) media (RP-HPLC); format: in vitro ADME; details: 37° C., up to 24 hours
Method: (§1) Stock peptide solutions for use in stability assays were prepared by dissolving tR1 to a final concentration of 5 mg/mL in dimethyl sulfoxide (DMSO). For stability tests, 2 μL of stock tR1 peptides were added to 198 μL pre-warmed RPMI medium supplemented with 25% (v/v) heat-inactivated human AB serum or neurobasal (NB) media at a final concentration of 50 μg/mL. Each reaction was subsequently incubated at 37° C. for the indicated times. Following incubation, 400 μL aqueous trichloroacetic acid (15%, w/v) was added to each reaction and the samples were immediately cooled on ice for 15 minutes. The samples were then centrifuged 3× at 14,000 rpm to remove precipitated proteins. […] The background signal was subtracted from each respective spectrum and the fraction of intact peptide was quantified from product peak integration normalized to undigested controls. […]
(§2) A major limitation to the therapeutic efficacy of peptides is their susceptibility to proteolytic degradation. Indeed, short peptides generally have a serum half-life measured in minutes. The in vitro stability of tR1 peptides in the presence of proteolytic enzymes was determined. […] Following the incubation, the reactions were quenched using haloacetic acids and the extent of degradation was quantified by analytical HPLC.

[4] = system: trypsin; assay: Trypsin degradation control (RP-HPLC); format: in vitro ADME; details: 37° C.
Method: as §1, §2

Sequence of MARK2 (Homo sapiens, UniProt Q7KZI7) (Q7KZI7 whole entry): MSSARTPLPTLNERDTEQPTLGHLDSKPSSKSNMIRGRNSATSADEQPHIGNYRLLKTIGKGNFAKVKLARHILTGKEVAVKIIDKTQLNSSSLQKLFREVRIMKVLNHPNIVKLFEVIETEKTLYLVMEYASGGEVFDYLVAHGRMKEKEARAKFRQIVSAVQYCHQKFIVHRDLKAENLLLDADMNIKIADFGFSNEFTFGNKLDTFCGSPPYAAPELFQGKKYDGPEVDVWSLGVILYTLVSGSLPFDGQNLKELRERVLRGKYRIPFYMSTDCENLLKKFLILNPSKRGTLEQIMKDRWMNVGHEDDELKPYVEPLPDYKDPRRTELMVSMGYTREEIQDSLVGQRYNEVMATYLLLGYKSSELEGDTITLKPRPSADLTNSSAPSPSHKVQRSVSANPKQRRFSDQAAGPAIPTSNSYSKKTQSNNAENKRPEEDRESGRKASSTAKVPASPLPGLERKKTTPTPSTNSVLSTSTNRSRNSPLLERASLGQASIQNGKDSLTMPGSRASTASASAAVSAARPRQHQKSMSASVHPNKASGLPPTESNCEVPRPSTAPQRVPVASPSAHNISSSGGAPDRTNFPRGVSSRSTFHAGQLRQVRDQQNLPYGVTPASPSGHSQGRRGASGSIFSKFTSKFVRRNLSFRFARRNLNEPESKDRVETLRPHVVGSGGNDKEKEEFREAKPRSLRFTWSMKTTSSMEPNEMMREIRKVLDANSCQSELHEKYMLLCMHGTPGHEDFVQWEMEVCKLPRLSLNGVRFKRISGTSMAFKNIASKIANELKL
Sequence of MARK2 (Rattus norvegicus, UniProt O08679) (O08679 whole entry): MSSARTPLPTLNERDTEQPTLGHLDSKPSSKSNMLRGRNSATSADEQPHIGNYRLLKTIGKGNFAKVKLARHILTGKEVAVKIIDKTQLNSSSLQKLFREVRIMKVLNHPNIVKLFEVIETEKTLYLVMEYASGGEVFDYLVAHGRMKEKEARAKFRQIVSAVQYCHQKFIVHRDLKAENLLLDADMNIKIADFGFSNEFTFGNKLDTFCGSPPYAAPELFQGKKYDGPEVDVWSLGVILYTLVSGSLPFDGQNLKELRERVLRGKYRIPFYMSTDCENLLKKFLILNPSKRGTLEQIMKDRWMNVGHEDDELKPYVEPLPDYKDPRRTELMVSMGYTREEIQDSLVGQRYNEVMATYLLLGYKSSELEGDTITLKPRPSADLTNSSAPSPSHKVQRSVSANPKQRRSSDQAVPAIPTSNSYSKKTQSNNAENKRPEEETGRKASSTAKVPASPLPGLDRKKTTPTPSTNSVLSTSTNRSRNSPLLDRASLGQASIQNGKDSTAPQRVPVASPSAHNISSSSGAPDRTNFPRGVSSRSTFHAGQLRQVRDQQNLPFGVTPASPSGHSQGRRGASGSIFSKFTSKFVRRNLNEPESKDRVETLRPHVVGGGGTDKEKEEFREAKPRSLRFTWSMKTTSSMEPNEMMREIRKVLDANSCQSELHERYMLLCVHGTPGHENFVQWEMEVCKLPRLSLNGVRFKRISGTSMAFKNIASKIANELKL

Compound: CC[C@H](C)[C@H](NC(=O)[C@H](CCCCN)NC(=O)[C@H](CO)NC(=O)[C@H](CCCCN)NC(=O)[C@@H](NC(=O)[C@H](CC(N)=O)NC(C)=O)C(C)C)C(=O)NCC(=O)N[C@@H](CO)C(=O)N[C@H](C(=O)N[C@@H](CCC(=O)O)C(=O)N[C@@H](CC(N)=O)C(=O)N[C@@H](CC(C)C)C(=O)N[C@@H](CCCCN)C(N)=O)[C@@H](C)O [tR1, NVKSKIGSTENLK] (Ac-NVKSKIGSTENLK-NH2)
- established in vitro inhibitory concentration [1]: 10 µM
- inhibition at 50 µM ([1]; 50 μM tR1, 60 minutes at 32° C. in phosphorylation buffer, read-out: inhibition of MARK2 activity (hTau-K18 Ser262 phosphorylation, densitometry)): ≤ 66%
- concentrations at which tR1 effectively inhibits MARK2-mediated phosphorylation of hTau-K18 ([1]; 60 minutes at 32° C., western blot): greater than 0.5 μM
- reduction in tau Ser262 phosphorylation ([2]; 10 μM tR1, co-treated with bafilomycin A1 or 100 μM chloroquine, 5 μM PAO): modest reduction in tau phosphorylation
- loss in tau pSer262 signal compared to cells treated with PAO alone ([2]; 30 μM peptide and bafilomycin, PAO): ~50%
- loss in tau pSer262 signal ([2]; 30 μM peptide and chloroquine, PAO): loss in signal comparable to that of baseline
- inhibition of MARK2-mediated phosphorylation of tau Ser262 ([2]; 30 μM tR1, co-treated with bafilomycin A1 or 100 μM chloroquine, 5 μM PAO): near complete inhibition
- inhibition of MARK2-mediated phosphorylation of tau Ser262 ([2]; tR1 peptides alone (no endosome disruptor), 5 μM PAO): did not inhibit
- fraction of intact tR1 (stable) [3]: > 90%
- remaining at 24 h, 50 μg/mL ([3]; neurobasal (NB) media, read-out: fraction of intact tR1 (stable)): > 90%
- degradation by trypsin ([4]; trypsin 10 ng/μL in digestion buffer, 15 minutes): complete degradation
- time to degradation in buffer containing trypsin ([4]; trypsin 10 ng/μL): less than 15 minutes
